According to US7294642B2, “1,3-Diamino-2-hydroxypropane pro-drug derivatives” (Elan Pharmaceuticals, Inc., priority 2002, dated 2007):

Assay: Acyl group migration (rearrangement) of pro-drug in DMSO-d6/buffer solution monitored by 19F-NMR
Format: physicochemical
Protocol: A compound of formula (I) OR (X) (5 mg) is dissolved in DMSO-d6 (500 μL) and either pH 4 buffer solution (500 μL, potassium hydrogen phthalate buffer) or pH 7 buffer solution (500 μL, sodium and potassium phosphate buffer) is added. The sample is then heated to 40° C. The O-acyl or N-acyl to N-terminal N-acyl migration is monitored by observing the change in chemical shift for the aromatic fluorines using ^19F-NMR. (Fluorine shifts associated with the desired migration were confirmed by spiking with authentic analogue). The sample is analyzed by ^19F-NMR at approxiamately 0, 1.5, 3, 24, 48, and 144 hours. The amount of O-acyl pro-drug, N-acyl pro-drug, and desired migration product at each time point are assigned by integrating the corresponding NMR signal.
N˜1˜-[(2R,3S)-3-amino-4-(3,5-difluorophenyl)-2-hydroxybutyl]-5-(1,3-oxazol-2-yl)-N˜3˜,N˜3˜-dipropyl-N˜1˜-[3-(trifluoromethyl)benzyl]isophthalamide hydrochloride (PREPARATION 7, 5 mg) is dissolved in DMSO-d6 (500 μL) and pH 4 buffer solution (500 μL, potassium hydrogen phthalate buffer) is added. The sample is then heated to 40° C. The N-acyl to N-terminal N-acyl migration is monitored by observing the change in chemical shift for the aromatic fluorines using ^19F-NMR. (Fluorine shifts for the desired migration product in the presence of buffer was confirmed by spiking with authentic migration product, N^1-((1S,2R)-1-(3,5-difluorobenzyl)-2-hydroxy-3-{[3-(trifluoromethyl)benzyl]amino}propyl)-5-(1,3-oxazol-2-yl)-N^3,N^3-dipropylisophthalamide.) NMR data is collected at 0, 1, 3, 25, 48, 96, and 144 hours. The amount of N-acyl pro-drug and desired migration product present at each time point is assigned by integrating the corresponding NMR signal.
The following examples illustrate the solution acyl group migration of compounds of the formulae (I) and (X) as observed by ^19F NMR spectroscopy. Data were collected as described in Example 1, above.

HEA product (% present) (pH 4, 40° C., time 0 hr)	N-acyl prodrug (% present) (pH 4, 40° C., time 0 hr)	O-acyl pro-drug (% present) (pH 4, 40° C., time 0 hr)	HEA product (% present) (pH 4, 40° C., time 3 hr)	N-acyl prodrug (% present) (pH 4, 40° C., time 3 hr)	O-acyl pro-drug (% present) (pH 4, 40° C., time 3 hr)	HEA product (% present) (pH 4, 40° C., time 24 hr)	N-acyl prodrug (% present) (pH 4, 40° C., time 24 hr)	O-acyl pro-drug (% present) (pH 4, 40° C., time 24 hr)	HEA product (% present) (pH 7, 40° C., time 0 hr)	N-acyl prodrug (% present) (pH 7, 40° C., time 0 hr)	O-acyl pro-drug (% present) (pH 7, 40° C., time 0 hr)	N-acyl prodrug (% present) (pH 7, 40° C., time 24 hr)	N-acyl prodrug (% present) (pH 7, 40° C., time 48 hr)	HEA product (% present) (pH 4, 40° C., time 48 hr)	N-acyl prodrug (% present) (pH 4, 40° C., time 48 hr)	O-acyl pro-drug (% present) (pH 4, 40° C., time 48 hr)	HEA product (% present) (pH 7, 40° C., time 24 hr)	O-acyl pro-drug (% present) (pH 7, 40° C., time 24 hr)	HEA product (% present) (pH 7, 40° C., time 48 hr)	Structure (SMILES)	other results
0%	0%	100%	67%	0%	33%	100%	0%	0%	0%	0%	100%	0%	0%							CCCN(CCC)C(=O)c1cc(C(=O)O[C@H](CNC2(c3cccc(CC)c3)CC2)[C@@H](N)Cc2cc(F)cc(F)c2)cc(-c2ncco2)c1.Cl.Cl [Preparation 17, (1R,2S)-2-amino-3-(3,5-difluorophenyl)-1-({[1-(3-ethylphenyl)cyclopropyl]amino}methyl)propyl 3-[(dipropylamino)carbonyl]-5-(1,3-oxazol-2-yl)benzoate dihydrochloride]	HEA product (% present) (pH 4, 40° C., time 1.5 hr): 47%; N-acyl prodrug (% present) (pH 4, 40° C., time 1.5 hr): 0%; O-acyl pro-drug (% present) (pH 4, 40° C., time 1.5 hr): 53%; HEA product (% present) (pH 4, 40° C., time 6 hr): 89%; N-acyl prodrug (% present) (pH 4, 40° C., time 6 hr): 0%; O-acyl pro-drug (% present) (pH 4, 40° C., time 6 hr): 11%; HEA product (% present) (pH 7, 40° C., time 1.5 hr): 97%; N-acyl prodrug (% present) (pH 7, 40° C., time 1.5 hr): 0%; O-acyl pro-drug (% present) (pH 7, 40° C., time 1.5 hr): 3%; N-acyl prodrug (% present) (pH 7, 40° C., time 7 hr): 0%; N-acyl prodrug (% present) (pH 7, 40° C., time 144 hr): 0%
0%	0%	100%	76%	15%	9%	88%	12%	0%	0%	0%	100%	38%	29%	88%	12%	0%	62%	0%	71%	CCCN(CCC)C(=O)c1cc(C(=O)O[C@H](CNCc2cccc(CC)c2)[C@@H](N)Cc2cc(F)cc(F)c2)cc(-c2ncco2)c1.Cl.Cl [Preparation 16, (1R,2S)-2-amino-3-(3,5-difluorophenyl)-1-{[(3-ethylbenzyl)amino]methyl}propyl 3-[(dispropylamino)carbonyl]-5-(1,3-oxazol-2-yl)benzoate dihydrochloride]	HEA product (% present) (pH 4, 40° C., time 1.5 hr): 54%; N-acyl prodrug (% present) (pH 4, 40° C., time 1.5 hr): 13%; O-acyl pro-drug (% present) (pH 4, 40° C., time 1.5 hr): 33%; HEA product (% present) (pH 4, 40° C., time 144 hr): 91%; N-acyl prodrug (% present) (pH 4, 40° C., time 144 hr): 9%; O-acyl pro-drug (% present) (pH 4, 40° C., time 144 hr): 0%; HEA product (% present) (pH 7, 40° C., time 1.5 hr): 48%; N-acyl prodrug (% present) (pH 7, 40° C., time 1.5 hr): 52%; O-acyl pro-drug (% present) (pH 7, 40° C., time 1.5 hr): 0%; HEA product (% present) (pH 7, 40° C., time 7 hr): 54%; N-acyl prodrug (% present) (pH 7, 40° C., time 7 hr): 46%; O-acyl pro-drug (% present) (pH 7, 40° C., time 7 hr): 0%; O-acyl pro-drug (% present) (pH 7, 40° C., time 48 hr): 0%; HEA product (% present) (pH 7, 40° C., time 144 hr): 85%; N-acyl prodrug (% present) (pH 7, 40° C., time 144 hr): 15%; O-acyl pro-drug (% present) (pH 7, 40° C., time 144 hr): 0%
0%	100%	0%	4%	96%	0%	7%	93%	0%	0%	100%	0%	49%	27%	8%	92%	0%	51%	0%	73%	CCCN(CCC)C(=O)c1cc(C(=O)N(Cc2cccc(C(F)(F)F)c2)C[C@@H](O)[C@@H](N)Cc2cc(F)cc(F)c2)cc(-c2ncco2)c1.Cl [Preparation 20, N^1-[(2R,3S)-3-amino-4-(3,5-difluorophenyl)-2-hydroxybutyl]-5-(1,3-oxazol-2-yl)-N^3,N^3-dipropyl-N^1-[3-(trifluoromethyl)benzyl]-isophthalamide hydrochloride]	HEA product (% present) (pH 4, 40° C., time 1 hr): 3%; N-acyl prodrug (% present) (pH 4, 40° C., time 1 hr): 97%; O-acyl pro-drug (% present) (pH 4, 40° C., time 1 hr): 0%; HEA product (% present) (pH 4, 40° C., time 96 hr): 12%; N-acyl prodrug (% present) (pH 4, 40° C., time 96 hr): 88%; O-acyl pro-drug (% present) (pH 4, 40° C., time 96 hr): 0%; HEA product (% present) (pH 7, 40° C., time 1 hr): 7%; N-acyl prodrug (% present) (pH 7, 40° C., time 1 hr): 93%; O-acyl pro-drug (% present) (pH 7, 40° C., time 1 hr): 0%; HEA product (% present) (pH 7, 40° C., time 3 hr): 12%; N-acyl prodrug (% present) (pH 7, 40° C., time 3 hr): 88%; O-acyl pro-drug (% present) (pH 7, 40° C., time 3 hr): 0%; O-acyl pro-drug (% present) (pH 7, 40° C., time 48 hr): 0%; HEA product (% present) (pH 7, 40° C., time 96 hr): 88%; N-acyl prodrug (% present) (pH 7, 40° C., time 96 hr): 12%; O-acyl pro-drug (% present) (pH 7, 40° C., time 96 hr): 0%
																				CCCN(CCC)C(=O)c1cc(C(=O)N(Cc2cccc(C(F)(F)F)c2)C[C@@H](O)[C@@H](N)Cc2cc(F)cc(F)c2)cc(-c2ncco2)c1.Cl [N˜1˜-[(2R,3S)-3-amino-4-(3,5-difluorophenyl)-2-hydroxybutyl]-5-(1,3-oxazol-2-yl)-N˜3˜,N˜3˜-dipropyl-N˜1˜-[3-(trifluoromethyl)benzyl]isophthalamide hydrochloride]	migration of N-acyl pro-drug to O-acyl pro-drug (pH 4 buffer/DMSO-d6, 40° C., 0 to 144 hours, 19F-NMR): No migration to O-acyl pro-drug was observed
0%	100%	0%	0%	100%	0%	3%	97%	0%	0%	100%	0%	60%	37%	5%	95%	0%	40%	0%	63%	CCCN(CCC)C(=O)c1cc(C(=O)N(Cc2cccc(CC)c2)C[C@@H](O)[C@@H](N)Cc2cc(F)cc(F)c2)cc(-c2ncco2)c1.Cl [Preparation 19, N^1-[(2R,3S)-3-amino-4-(3,5-difluorophenyl)-2-hydroxybutyl]-N\(u)1\(d)-(3-ethylbenzyl)-5-(1,3-oxazol-2-yl)-N^3,N^3-dispropylisophthalamide hydrochloride]	HEA product (% present) (pH 4, 40° C., time 1 hr): 0%; N-acyl prodrug (% present) (pH 4, 40° C., time 1 hr): 100%; O-acyl pro-drug (% present) (pH 4, 40° C., time 1 hr): 0%; HEA product (% present) (pH 4, 40° C., time 96 hr): 8%; N-acyl prodrug (% present) (pH 4, 40° C., time 96 hr): 92%; O-acyl pro-drug (% present) (pH 4, 40° C., time 96 hr): 0%; HEA product (% present) (pH 7, 40° C., time 1 hr): 3%; N-acyl prodrug (% present) (pH 7, 40° C., time 1 hr): 97%; O-acyl pro-drug (% present) (pH 7, 40° C., time 1 hr): 0%; HEA product (% present) (pH 7, 40° C., time 3 hr): 9%; N-acyl prodrug (% present) (pH 7, 40° C., time 3 hr): 91%; O-acyl pro-drug (% present) (pH 7, 40° C., time 3 hr): 0%; O-acyl pro-drug (% present) (pH 7, 40° C., time 48 hr): 0%; HEA product (% present) (pH 7, 40° C., time 96 hr): 81%; N-acyl prodrug (% present) (pH 7, 40° C., time 96 hr): 19%; O-acyl pro-drug (% present) (pH 7, 40° C., time 96 hr): 0%
